According to patent US20210393645A1, “TREATMENT FOR PROGRESSIVE MULTIPLE SCLEROSIS” (UTI LIMITED PARTNERSHIP, priority 2016, published 2021):
Structures can show the parent of a compound that is named as a salt. Where two headings read alike, the source gives them in different places. Positions of bridges follow the written chain, without caps; N, C: chain ends. Non-standard residues stand in square brackets, D forms with d. Residues, ends and D or L forms follow the SMILES beside them. *: point of attachment. Ileψ(thiazoline)Cys = CC[C@H](C)[C@H](N)C1=N[C@H](C(=O)*)CS1; dOrn = NCCC[C@@H](N)C(=O)O

System: human neurons
Experiment: Iron (FeSO4) mediated neurotoxicity screening, MAP-2 positive neurons counted
Type: cell-based
Conditions: for viability at 10 µM: Homo sapiens, Neuron, read-out: Drug % control (mean): number of neurons normalized to untreated control
Method: Human neurons were isolated from brain tissues of therapeutically aborted 15-20 week old fetuses, in accordance with ethics approval of the University of Calgary ethics committee, after written informed consent of the pregnant donors. Neurons were isolated as previously described (Vecil et al., 2000) brain specimens were washed in phosphate buffered saline (PBS) to remove blood, followed by removal of meninges. […] Thereafter, the digestion was stopped by addition of 4 ml fetal calf serum (FCS). […] Cells were cultured in feeding medium of minimal essential medium (MEM) supplemented with 10% fetal bovine serum (FBS), 1 μM sodium pyruvate, 10 μM glutamine, 1× non-essential amino acids, 0.1% dextrose and 1% penicillin/streptomycin (all culture supplements from Invitrogen, Burlington, Canada). […] For experiments, the neuron-enriched cultures were retrypsinized and cells were plated in poly-L-ornithine pre-coated 96-well plates at a density of 100,000 cells/well in 100 μl of the complete medium supplemented with cytosine arabinoside. […] All conditions were performed in quadruplicates. A day later cells were fixed using 4% paraformaldehyde (PFA) and stored in PBS in 4° C.
Briefly, there were 80 compounds located in specific wells on each plate (e. g. B07). […] Each compound was supplied at a concentration of 10 mM dissolved in DMSO.
After filtering with a 0.2 μm filter, FeSO4 was added to cells in a final concentration of 25-50 μM in a volume of 50 μl medium to the cells. Rotenone was dissolved in dimethyl sulfoxide (DMSO) and used in a final concentration of 10 μM.
Staining was performed at room temperature. A blocking buffer was first introduced for 1 h followed by incubation with primary antibody overnight in 4° C.
Cell nuclei were stained with Hoechst S769121 (nuclear yellow). Cells were stored in 4° C. in the dark before imaging.
Images were taken using the automated ImageXpress® imaging system (Molecular Devices, Sunnyvale, Calif.) through a 10x objective microscope lens, displaying 4 or 9 sites per well. […] Cells were defined according to fluorescence intensity and size at different wavelengths. Data from all sites per well were averaged to one data point.
Neurons were pre-incubated with each compound for 1 h followed by application of FeSO4.

[1] = drug 10 μM 1 h before FeSO4 25 or 50 μM, MAP-2 neurons after 24 h

| SMILES | viability at 10 µM [1] | other results |
| --- | --- | --- |
| CCCc1nn(C)c2c(=O)[nH]c(-c3cc(S(=O)(=O)N4CCN(C)CC4)ccc3OCC)nc12 | 49.3% |  |
| OC[C@H]1O[C@@H](O[C@@H]2[C@@H](CO)OC(O)(CO)[C@H]2O)[C@H](O)[C@@H](O)[C@H]1O (mixture of isomers) [LACTULOSE] | 80.8% |  |
| CC(C)NCC(O)COc1cccc2ccccc12.Cl (racemic) [PROPRANOLOL HYDROCHLORIDE (+/−)] |  | Drug % control (mean): number of neurons normalized to untreated control [1]: 66.49% |
| O=C(O)c1cc2cc(Cl)ccc2[nH]1 [5-CHLOROINDOLE-2-CARBOXYLIC ACID] | 37.3% |  |
| CC(=O)Nc1ccc(O)cc1 [ACETAMINOPHEN] | 35.1% |  |
| CC(=O)Nc1nnc(S(N)(=O)=O)s1 [ACETAZOLAMIDE] | 23.6% |  |
| CC(=O)N[C@@H](CS)C(=O)O [ACETYLCYSTEINE] | 21.7% |  |
| Oc1ncnc2[nH]ncc12 [ALLOPURINOL] | 25.5% |  |
| CN(C)CCc1c[nH]c2ccc(CS(=O)(=O)N3CCCC3)cc12 [ALMOTRIPTAN] | 94.4% |  |
| CN(C)c1nc(N(C)C)nc(N(C)C)n1 [ALTRETAMINE] | 4.2% |  |
| NC12CC3CC(CC(C3)C1)C2 [AMANTADINE HYDROCHLORIDE] | 52.6% |  |
| NCC[C@H](O)C(=O)N[C@@H]1C[C@H](N)[C@@H](O[C@H]2O[C@H](CN)[C@@H](O)[C@H](O)[C@H]2O)[C@H](O)[C@H]1O[C@H]1O[C@H](CO)[C@@H](O)[C@H](N)[C@H]1O.O=S(=O)(O)O.O=S(=O)(O)O [AMIKACIN SULFATE] |  | Drug % control (mean): number of neurons normalized to untreated control [1]: 35.92% |
| N=C(N)NC(=O)c1nc(Cl)c(N)nc1N [AMILORIDE HYDROCHLORIDE] | 37.1% |  |
| CCCCc1oc2ccccc2c1C(=O)c1cc(I)c(OCCN(CC)CC)c(I)c1 [AMIODARONE HYDROCHLORIDE] | 71.3% |  |
| CN(C)CCC=C1c2ccccc2CCc2ccccc21 [AMITRIPTYLINE HYDROCHLORIDE] | 34.8% |  |
| CCOC(=O)C1=C(COCCN)NC(C)=C(C(=O)OC)C1c1ccccc1Cl (centres unmarked) [AMLODIPINE BESYLATE] | 93.1% |  |
| CC1(C)S[C@@H]2[C@H](NC(=O)[C@H](N)c3ccc(O)cc3)C(=O)N2[C@H]1C(=O)O [AMOXICILLIN] | 6.41% |  |
| Cc1cc(=O)n(-c2ccccc2)n1C [ANTIPYRINE] | 2.11% |  |
| CC(=O)Oc1ccccc1C(=O)O [ASPIRIN] | 68.2% |  |
| CC(C)NCC(O)COc1ccc(CC(N)=O)cc1 (centres unmarked) [ATENOLOL] | 43.4% |  |
| CC(C)c1c(C(=O)Nc2ccccc2)c(-c2ccccc2)c(-c2ccc(F)cc2)n1CC[C@@H](O)C[C@@H](O)CC(=O)[O-].CC(C)c1c(C(=O)Nc2ccccc2)c(-c2ccccc2)c(-c2ccc(F)cc2)n1CC[C@@H](O)C[C@@H](O)CC(=O)[O-].[Ca+2] [ATORVASTATIN CALCIUM] |  | Drug % control (mean): number of neurons normalized to untreated control [1]: 68.87% |

| SMILES | viability at 10 µM [1] | other results |
| --- | --- | --- |
| O=C1C(O)=C([C@H]2CC[C@H](c3ccc(Cl)cc3)CC2)C(=O)c2ccccc21 [ATOVAQUONE] | 67.7% |  |
| Cn1cnc([N+](=O)[O-])c1Sc1ncnc2nc[nH]c12 [AZATHIOPRINE] | 4.65% |  |
| CC[C@H]1OC(=O)[C@H](C)[C@@H](O[C@H]2C[C@@](C)(OC)[C@@H](O)[C@H](C)O2)[C@H](C)[C@@H](O[C@@H]2O[C@H](C)C[C@H](N(C)C)[C@H]2O)[C@](C)(O)C[C@@H](C)CN(C)[C@H](C)[C@@H](O)[C@]1(C)O [AZITHROMYCIN] | 56.8% |  |
| CC[C@H](C)[C@H](N)C1=N[C@H](C(=O)N[C@@H](CC(C)C)C(=O)N[C@H](CCC(=O)O)C(=O)N[C@H](C(=O)N[C@H]2CCCCNC(=O)[C@H](CC(N)=O)NC(=O)[C@@H](CC(=O)O)NC(=O)[C@H](Cc3cnc[nH]3)NC(=O)[C@@H](Cc3ccccc3)NC(=O)[C@H]([C@@H](C)CC)NC(=O)[C@@H](CCCN)NC2=O)[C@@H](C)CC)CS1 [BACITRACIN] ({Ileψ(thiazoline)Cys}-L[dE]IK[dOrn]I[dF]H[dD]N; lactam 4-C) | 5.04% |  |
| NCC(CC(=O)O)c1ccc(Cl)cc1 (centres unmarked) [BACLOFEN] | 35.8% |  |
| CCOC(=O)[C@H](CCc1ccccc1)N[C@H]1CCc2ccccc2N(CC(=O)O)C1=O [BENAZEPRIL HYDROCHLORIDE] | 72.2% |  |
| CN1[C@@H]2CC[C@H]1C[C@@H](OC(c1ccccc1)c1ccccc1)C2 [BENZTROPINE] |  | viability at 10 µM (24 h): 11.4% |
| CC(C[N+](C)(C)C)OC(N)=O (centres unmarked) [BETHANECHOL CHLORIDE] | 16% |  |
| CC(C)(Oc1ccc(CCNC(=O)c2ccc(Cl)cc2)cc1)C(=O)O [BEZAFIBRATE] | 35.5% |  |
| CC(=O)Oc1ccc(C(c2ccc(OC(C)=O)cc2)c2ccccn2)cc1 [BISACODYL] | 93.3% |  |
| CN(C)CCC(c1ccc(Br)cc1)c1ccccn1 (centres unmarked) [BROMPHENIRAMINE MALEATE] | 79.9% |  |
| CCCC1O[C@@H]2C[C@H]3[C@@H]4CCC5=CC(=O)C=C[C@]5(C)[C@H]4[C@@H](O)C[C@]3(C)[C@]2(C(=O)CO)O1 (some centres unmarked) [BUDESONIDE] | 70% |  |
| CCCCNc1cc(C(=O)O)cc(S(N)(=O)=O)c1Oc1ccccc1 [BUMETANIDE] | 29.4% |  |
| CC(NC(C)(C)C)C(=O)c1cccc(Cl)c1 (centres unmarked) [BUPROPION] | 55.5% |  |
| CS(=O)(=O)OCCCCOS(C)(=O)=O [BUSULFAN] | 13.3% |  |
| CCOc1nc2cccc(C(=O)OC(C)OC(=O)OC3CCCCC3)c2n1Cc1ccc(-c2ccccc2-c2nn[nH]n2)cc1 (centres unmarked) [CANDESARTAN CILEXTIL] |  | Drug % control (mean): number of neurons normalized to untreated control [1]: 35.48% |
| C[C@H](CS)C(=O)N1CCC[C@H]1C(=O)O [CAPTOPRIL] | 35.3% |  |
| C[N+](C)(C)CCOC(N)=O [CARBACHOL] | 8.87% |  |
| NC(=O)N1c2ccccc2C=Cc2ccccc21 [CARBAMAZEPINE] | 13.3% |  |
| CC1=C(C(=O)O)N2C(=O)[C@@H](NC(=O)[C@H](N)c3ccccc3)[C@H]2SC1 [CEPHALEXIN] |  | viability at 10 µM (24 h): 38.9% |
| CN(C)CC[C@@H](c1ccc(Cl)cc1)c1ccccn1.O=C(O)/C=C\C(=O)O [CHLORPHENIRAMINE(S) MALEATE] |  | Drug % control (mean): number of neurons normalized to untreated control [1]: 52.32% |

| SMILES | viability at 10 µM [1] | other results |
| --- | --- | --- |
| CCCNC(=O)NS(=O)(=O)c1ccc(Cl)cc1 [CHLORPROPAMIDE] | 5.32% |  |
| NS(=O)(=O)c1cc(C2(O)NC(=O)c3ccccc32)ccc1Cl (centres unmarked) [CHLORTHALIDONE] | 7.66% |  |
| CN/C(=N/CCSCc1nc[nH]c1C)NC#N [CIMETIDINE] | 34.4% |  |
| O=C(O)c1cn(C2CC2)c2cc(N3CCNCC3)c(F)cc2c1=O [CIPROFLOXACIN] |  | viability at 10 µM (24 h): 41% |
| CC[C@H]1OC(=O)[C@H](C)[C@@H](O[C@H]2C[C@@](C)(OC)[C@@H](O)[C@H](C)O2)[C@H](C)[C@@H](O[C@@H]2O[C@H](C)C[C@H](N(C)C)[C@H]2O)[C@](C)(OC)C[C@@H](C)C(=O)[C@H](C)[C@@H](O)[C@]1(C)O [CLARITHROMYCIN] | 55.1% |  |
| CN1CCC[C@@H]1CCO[C@](C)(c1ccccc1)c1ccc(Cl)cc1 [CLEMASTINE] | 6.19% |  |
| Clc1cccc(Cl)c1N=C1NCCN1 [CLONIDINE HYDROCHLORIDE] |  | viability at 10 µM (24 h): 7.47% |
| Clc1ccccc1C(c1ccccc1)(c1ccccc1)n1ccnc1 [CLOTRIMAZOLE] | 12.4% |  |
| Cc1onc(-c2ccccc2Cl)c1C(=O)N[C@@H]1C(=O)N2[C@@H]1SC(C)(C)[C@@H]2C(=O)O [CLOXACILLIN SODIUM] | 28.4% |  |
| CN1CCN(C2=Nc3cc(Cl)ccc3Nc3ccccc32)CC1 [CLOZAPINE] | 101% |  |
| COc1cc2c(c(OC)c1OC)-c1ccc(OC)c(=O)cc1[C@@H](NC(C)=O)CC2 [COLCHICINE] |  | viability at 10 µM (24 h): 3.12% |
| O=P1(N(CCCl)CCCl)NCCCO1 (centres unmarked) [CYCLOPHOSPHAMIDE HYDRATE] |  | viability at 10 µM (24 h): 6.39% |
| C#C[C@]1(O)CC[C@H]2[C@@H]3CCC4=Cc5oncc5C[C@]4(C)[C@H]3CC[C@@]21C [DANAZOL] | 4.37% |  |
| Nc1ccc(S(=O)(=O)c2ccc(N)cc2)cc1 [DAPSONE] | 18.6% |  |
| Cc1cc(N)c2ccccc2[n+]1CCCCCCCCCC[n+]1c(C)cc(N)c2ccccc21 [DEQUALINIUM CHLORIDE] | 10.5% |  |
| COc1ccc2c(c1)[C@]13CCCC[C@@H]1[C@H](C2)N(C)CC3 [DEXTROMETHORPHAN HYDROBROMIDE] | 3.49% |  |
| O=C(O)Cc1ccccc1Nc1c(Cl)cccc1Cl [DICLOFENAC SODIUM] | 5.92% |  |
| O=C(O)c1cc(-c2ccc(F)cc2F)ccc1O [DIFLUNISAL] | 4.12% |  |
| CN(C)CCOC(c1ccccc1)c1ccccc1.Cn1c(=O)c2[nH]c(Cl)nc2n(C)c1=O [DIMENHYDRINATE] |  | Drug % control (mean): number of neurons normalized to untreated control [1]: 36.53% |
| CN(C)CCOC(c1ccccc1)c1ccccc1 [DIPHENHYDRAMINE HYDROCHLORIDE] | 74.7% |  |
